Reference: the NIST ThermoML archive (doi:10.1021/je400178k)
± gives the expanded uncertainty stated by the source.

Experiment: molar heat capacity at constant pressure; xn = mol fraction of the nth substance listed
Conditions: 101 kPa, Liquid, Small sample (50 mg) DSC

OCCN1CCOCC1 [4-morpholineethanol] + O
molar heat capacity at constant pressure [J/K/mol]
Conditions	x1 = 0.0998	x1 = 0.1985	x1 = 0.2979	x1 = 0.3969	x1 = 0.4952	x1 = 0.6017	x1 = 0.7031	x1 = 0.7657	x1 = 0.8977	x1 = 1
298.15 K	101 ± 2.5	120.8 ± 2.6	140.3 ± 2.8	159.5 ± 3	177.4 ± 3.2	195.6 ± 3.4	212.8 ± 3.6	223.5 ± 3.7	246.5 ± 4	263.9 ± 4.2
303.15 K	102.4 ± 2.5	123.6 ± 2.7	142.6 ± 2.8	162.4 ± 3	180 ± 3.2	198 ± 3.4	214.7 ± 3.6	226 ± 3.8	248.4 ± 4	265.3 ± 4.3
308.15 K	103.8 ± 2.5	125.7 ± 2.7	144.6 ± 2.9	165 ± 3.1	182.6 ± 3.3	200.3 ± 3.5	217.1 ± 3.7	228.3 ± 3.8	250.8 ± 4.1	267.1 ± 4.3
313.15 K	105.4 ± 2.5	127.9 ± 2.7	146.7 ± 2.9	167.8 ± 3.1	185.5 ± 3.3	203 ± 3.5	219.7 ± 3.7	230.8 ± 3.8	253.1 ± 4.1	269.2 ± 4.3
318.15 K	107.2 ± 2.5	130.4 ± 2.7	148.9 ± 2.9	171 ± 3.1	188.6 ± 3.3	205.9 ± 3.5	222.5 ± 3.7	233.3 ± 3.9	255 ± 4.1	270.8 ± 4.3
323.15 K	109 ± 2.5	133 ± 2.7	152.3 ± 2.9	174.4 ± 3.2	191.8 ± 3.4	208.7 ± 3.6	225.5 ± 3.8	235.8 ± 3.9	257 ± 4.1	272.6 ± 4.3
328.15 K	111.4 ± 2.5	136 ± 2.8	156.3 ± 3	178.4 ± 3.2	195.5 ± 3.4	211.8 ± 3.6	228.7 ± 3.8	238.6 ± 3.9	259.1 ± 4.2	274.3 ± 4.4
333.15 K	114.2 ± 2.6	139.3 ± 2.8	160.3 ± 3	183 ± 3.3	199.7 ± 3.5	215.6 ± 3.6	232.5 ± 3.8	242.5 ± 4	261.7 ± 4.2	276.2 ± 4.4
338.15 K	117.4 ± 2.6	143.2 ± 2.8	165 ± 3.1	188.6 ± 3.3	204.6 ± 3.5	220.1 ± 3.7	237 ± 3.9	246.3 ± 4	264.7 ± 4.2	278.7 ± 4.4
343.15 K	121.1 ± 2.6	147.7 ± 2.9	170.6 ± 3.1	194.6 ± 3.4	209.9 ± 3.6	225.4 ± 3.8	241.6 ± 4	250.3 ± 4.1	267.9 ± 4.3	281 ± 4.4
348.15 K	125.9 ± 2.7	152.9 ± 2.9	178.7 ± 3.2	201.6 ± 3.5	215.9 ± 3.7	231 ± 3.8	246.6 ± 4	254.8 ± 4.1	271.2 ± 4.3	283.2 ± 4.5
353.15 K	131.9 ± 2.7	159.5 ± 3	187 ± 3.3	209.9 ± 3.6	222.5 ± 3.7	236.4 ± 3.9	252.2 ± 4.1	259.4 ± 4.2	274.8 ± 4.4	284.9 ± 4.5

OCCN1CCNCC1 [N-(2-hydroxyethyl)piperazine] + O
molar heat capacity at constant pressure [J/K/mol]
Conditions	x1 = 0.0999	x1 = 0.2	x1 = 0.2921	x1 = 0.3916	x1 = 0.4896	x1 = 0.6011	x1 = 0.6947	x1 = 0.7952	x1 = 0.8939	x1 = 1
298.15 K	104.2 ± 2.5	126.9 ± 2.7	145.8 ± 2.9	165.4 ± 3.1	184.7 ± 3.3	206.4 ± 3.5	224.8 ± 3.8	244.6 ± 4	264.2 ± 4.2	285 ± 4.5
303.15 K	105.7 ± 2.5	129.2 ± 2.7	149.2 ± 2.9	169.1 ± 3.1	188.3 ± 3.3	210.1 ± 3.6	228.7 ± 3.8	248.9 ± 4	268.8 ± 4.3	289.9 ± 4.6
308.15 K	107.1 ± 2.5	131.5 ± 2.7	151.9 ± 2.9	171.5 ± 3.1	191 ± 3.4	212.7 ± 3.6	231.4 ± 3.8	251.8 ± 4.1	271.6 ± 4.3	292.9 ± 4.6
313.15 K	108.6 ± 2.5	133.9 ± 2.8	154.8 ± 3	174.4 ± 3.2	194.1 ± 3.4	215.8 ± 3.6	234.5 ± 3.9	254.5 ± 4.1	274.4 ± 4.4	296 ± 4.6
318.15 K	110.4 ± 2.5	136.1 ± 2.8	157.5 ± 3	177.5 ± 3.2	196.8 ± 3.4	218.2 ± 3.7	237.1 ± 3.9	257.2 ± 4.2	277.2 ± 4.4	298.9 ± 4.7
323.15 K	112.2 ± 2.6	139 ± 2.8	160.7 ± 3	179.9 ± 3.2	199.4 ± 3.5	220.7 ± 3.7	239.6 ± 3.9	259.8 ± 4.2	279.8 ± 4.4	301.7 ± 4.7
328.15 K	114.3 ± 2.6	142.3 ± 2.8	164.2 ± 3.1	182.4 ± 3.3	202 ± 3.5	223.7 ± 3.7	242.6 ± 4	262.7 ± 4.2	282.8 ± 4.5	305 ± 4.8
333.15 K	115.7 ± 2.6	144.9 ± 2.9	167.3 ± 3.1	185.7 ± 3.3	204.7 ± 3.5	226.3 ± 3.8	245.3 ± 4	265.5 ± 4.3	285.7 ± 4.5	308.1 ± 4.8
338.15 K	118.5 ± 2.6	148 ± 2.9	170.6 ± 3.1	188.1 ± 3.3	207.5 ± 3.6	229.1 ± 3.8	248.2 ± 4	268.2 ± 4.3	288.4 ± 4.5	311 ± 4.8
343.15 K	120.8 ± 2.6	150.6 ± 2.9	173.3 ± 3.2	190.9 ± 3.4	210.1 ± 3.6	232 ± 3.8	250.8 ± 4.1	270.8 ± 4.3	291.1 ± 4.6	313.9 ± 4.9
348.15 K	122.5 ± 2.6	153 ± 2.9	175.6 ± 3.2	194 ± 3.4	212.8 ± 3.6	234.8 ± 3.9	253.5 ± 4.1	273.3 ± 4.4	293.6 ± 4.6	316.5 ± 4.9
353.15 K	124 ± 2.7	155.5 ± 3	177.9 ± 3.2	197.6 ± 3.4	215.5 ± 3.6	237.5 ± 3.9	256.1 ± 4.1	275.8 ± 4.4	296.1 ± 4.6	319 ± 4.9
